# Measurements taken from US7074789B2, “Kinase inhibitors” (Amgen Inc., priority 1999, dated 2006).
# pIC50: −log10 of the molar value.
# Key:
# Format in all cases: biochemical
# AKT = target: T1, AKT (Homo sapiens, UniProt Q9Y243); assay: Kinase inhibition assay (33P transfer), AKT; settings: Table 2, kinase inhibition class; read-out: AKT3-1
# T1 construct: Kinases are expressed as either kinase domains or full length constructs; made in house
# Procedure, shortened: (§1)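 GST/His-tagged kinase (domain or full length; E. coli or baculovirus) + [33P]ATP on plates coated with poly(Glu,Tyr) 4:1 or poly(Arg,Ser) 3:1; incubate, wash 0.5% H3PO4, add scintillant, count.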
# Src = target: T2, Src (Homo sapiens, UniProt P12931); assay: Kinase inhibition assay (33P transfer), Src; settings: Table 6, Src-1 kinase inhibition class
# T2 construct: Kinases are expressed as either kinase domains or full length constructs; made in house
# Procedure, shortened: (§2)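 Activity read as 33P incorporation from ATP into poly(Glu,Tyr) 4:1 or poly(Arg,Ser) 3:1 substrate bound to microtiter plates, measured by scintillation after acid washing. Enzymes were affinity-purified GST or polyHis fusions (kinase domain or full length) from E. coli or baculovirus; IC50 = 50% reduction in labelled phosphate.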
# EGFR = target: T3, EGFR (Homo sapiens, UniProt P00533); assay: Kinase inhibition assay (33P transfer), EGFR; settings: Table 2, kinase inhibition class; read-out: EGFR-1
# T3 construct: Kinases are expressed as either kinase domains or full length constructs; made in house
# Procedure, shortened: as §2
# Lck = target: T4, Lck (Homo sapiens, UniProt P06239); assay: Kinase inhibition assay (33P transfer), Lck; settings: Table 3; read-out: Lck-1
# T4 construct: Kinases are expressed as either kinase domains or full length constructs; made in house
# Procedure, shortened: as §1
# Hck-1 = target: T5, Hck-1 (Homo sapiens, UniProt P08631); assay: Kinase inhibition assay (33P transfer), Hck; settings: Table 6, Hck-1 kinase inhibition class
# T5 construct: Kinases are expressed as either kinase domains or full length constructs; made in house
# T5 sequence (P08631 whole entry, the tested form may be a part): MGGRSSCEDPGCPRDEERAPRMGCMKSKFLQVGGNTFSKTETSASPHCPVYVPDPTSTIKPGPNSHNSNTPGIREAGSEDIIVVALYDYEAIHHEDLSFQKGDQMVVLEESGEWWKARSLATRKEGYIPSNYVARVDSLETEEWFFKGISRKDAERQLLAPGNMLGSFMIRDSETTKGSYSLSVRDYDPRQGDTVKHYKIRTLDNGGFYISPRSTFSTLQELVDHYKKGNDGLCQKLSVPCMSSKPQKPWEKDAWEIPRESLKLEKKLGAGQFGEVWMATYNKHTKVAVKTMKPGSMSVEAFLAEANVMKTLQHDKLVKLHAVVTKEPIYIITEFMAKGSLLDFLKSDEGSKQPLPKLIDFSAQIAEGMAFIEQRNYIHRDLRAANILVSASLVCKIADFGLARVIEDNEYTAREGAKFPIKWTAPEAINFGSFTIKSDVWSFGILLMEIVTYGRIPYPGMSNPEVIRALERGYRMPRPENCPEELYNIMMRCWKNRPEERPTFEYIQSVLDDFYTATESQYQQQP
# c-Met = target: T6, c-Met (Homo sapiens, UniProt P08581); assay: Kinase inhibition assay (33P transfer), c-Met; settings: Table 2, kinase inhibition class; read-out: Met-1
# T6 construct: Kinases are expressed as either kinase domains or full length constructs; made in house
# T6 sequence (P08581 25-1390): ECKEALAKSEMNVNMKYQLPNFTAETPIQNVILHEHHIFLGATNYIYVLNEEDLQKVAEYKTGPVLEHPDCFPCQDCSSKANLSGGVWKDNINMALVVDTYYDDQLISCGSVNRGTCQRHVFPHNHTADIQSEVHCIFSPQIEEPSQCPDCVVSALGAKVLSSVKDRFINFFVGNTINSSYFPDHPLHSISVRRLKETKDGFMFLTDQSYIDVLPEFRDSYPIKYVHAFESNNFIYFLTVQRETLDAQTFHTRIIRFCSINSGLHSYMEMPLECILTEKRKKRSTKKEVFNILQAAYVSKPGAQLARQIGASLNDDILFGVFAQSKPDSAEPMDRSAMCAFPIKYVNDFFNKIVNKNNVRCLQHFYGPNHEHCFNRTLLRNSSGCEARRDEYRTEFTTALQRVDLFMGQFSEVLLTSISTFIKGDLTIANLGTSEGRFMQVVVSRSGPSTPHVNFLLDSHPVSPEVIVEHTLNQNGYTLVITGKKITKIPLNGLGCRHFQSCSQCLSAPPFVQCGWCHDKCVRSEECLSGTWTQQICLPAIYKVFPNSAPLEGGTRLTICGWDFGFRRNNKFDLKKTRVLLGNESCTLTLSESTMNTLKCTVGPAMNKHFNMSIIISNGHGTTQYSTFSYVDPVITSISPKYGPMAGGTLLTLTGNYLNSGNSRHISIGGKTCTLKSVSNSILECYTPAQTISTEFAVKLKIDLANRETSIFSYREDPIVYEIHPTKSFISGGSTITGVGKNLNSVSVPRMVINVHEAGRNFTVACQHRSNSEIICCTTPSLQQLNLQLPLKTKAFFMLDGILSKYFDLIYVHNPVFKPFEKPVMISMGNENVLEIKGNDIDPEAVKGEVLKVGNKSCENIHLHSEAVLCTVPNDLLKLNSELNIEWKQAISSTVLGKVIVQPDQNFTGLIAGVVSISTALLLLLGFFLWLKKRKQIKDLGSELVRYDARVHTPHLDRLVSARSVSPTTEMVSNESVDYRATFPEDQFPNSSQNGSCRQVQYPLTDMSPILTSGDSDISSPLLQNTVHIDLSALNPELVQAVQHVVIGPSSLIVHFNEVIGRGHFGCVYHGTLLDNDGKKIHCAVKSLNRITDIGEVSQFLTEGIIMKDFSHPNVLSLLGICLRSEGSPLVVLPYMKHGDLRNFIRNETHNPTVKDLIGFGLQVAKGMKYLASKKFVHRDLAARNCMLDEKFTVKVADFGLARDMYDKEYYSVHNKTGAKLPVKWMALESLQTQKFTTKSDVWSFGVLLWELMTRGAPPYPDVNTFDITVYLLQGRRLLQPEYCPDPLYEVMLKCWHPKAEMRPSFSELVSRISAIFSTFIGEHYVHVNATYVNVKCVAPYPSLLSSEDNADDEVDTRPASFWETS
# Procedure, shortened: as §2
# PDGFRB = target: T7, PDGFRB (Homo sapiens, UniProt P09619); assay: Kinase inhibition assay (33P transfer), PDGFRB; settings: read-out: PDGFRB-1
# T7 construct: Kinases are expressed as either kinase domains or full length constructs; made in house
# Tek = target: T8, Tek (Homo sapiens, UniProt Q02763); assay: Kinase inhibition assay (33P transfer), Tek; settings: read-out: Tek-1
# T8 construct: Kinases are expressed as either kinase domains or full length constructs; made in house
# T8 sequence (Q02763 23-1124, species assumed): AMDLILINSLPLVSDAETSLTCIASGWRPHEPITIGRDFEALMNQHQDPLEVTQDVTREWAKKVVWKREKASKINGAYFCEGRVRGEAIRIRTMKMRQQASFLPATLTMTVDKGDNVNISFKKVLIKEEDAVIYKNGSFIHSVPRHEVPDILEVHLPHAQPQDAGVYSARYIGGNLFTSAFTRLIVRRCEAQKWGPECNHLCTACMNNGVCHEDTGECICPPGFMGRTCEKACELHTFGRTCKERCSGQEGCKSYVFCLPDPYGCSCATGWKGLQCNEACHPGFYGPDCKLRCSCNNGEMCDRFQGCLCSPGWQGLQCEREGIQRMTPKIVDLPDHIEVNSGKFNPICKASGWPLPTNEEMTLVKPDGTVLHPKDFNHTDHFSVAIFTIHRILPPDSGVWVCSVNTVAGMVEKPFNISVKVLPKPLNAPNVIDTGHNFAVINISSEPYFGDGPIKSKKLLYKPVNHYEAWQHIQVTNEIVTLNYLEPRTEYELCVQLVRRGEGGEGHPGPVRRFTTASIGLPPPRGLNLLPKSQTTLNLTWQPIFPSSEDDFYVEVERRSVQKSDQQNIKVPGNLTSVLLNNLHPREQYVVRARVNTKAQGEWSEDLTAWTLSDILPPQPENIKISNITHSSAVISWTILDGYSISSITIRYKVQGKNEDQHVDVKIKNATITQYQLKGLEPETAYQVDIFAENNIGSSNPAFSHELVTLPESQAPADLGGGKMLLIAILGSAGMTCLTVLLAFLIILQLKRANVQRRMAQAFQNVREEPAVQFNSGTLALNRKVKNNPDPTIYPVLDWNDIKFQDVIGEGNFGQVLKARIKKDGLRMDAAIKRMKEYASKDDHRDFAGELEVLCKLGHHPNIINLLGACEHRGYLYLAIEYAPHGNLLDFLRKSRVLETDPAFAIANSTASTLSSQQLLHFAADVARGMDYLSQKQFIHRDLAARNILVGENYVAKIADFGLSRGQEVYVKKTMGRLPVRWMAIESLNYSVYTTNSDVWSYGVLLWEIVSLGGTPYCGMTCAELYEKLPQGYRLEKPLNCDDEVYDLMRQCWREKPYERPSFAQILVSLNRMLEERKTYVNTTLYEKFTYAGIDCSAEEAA
# Procedure, shortened: as §2
# Flt-1 = target: T9, Flt-1 (Homo sapiens, UniProt P17948); assay: Kinase inhibition assay (33P transfer), Flt-1
# T9 construct: Kinases are expressed as either kinase domains or full length constructs; made in house
# T9 sequence (P17948 27-1338, species assumed): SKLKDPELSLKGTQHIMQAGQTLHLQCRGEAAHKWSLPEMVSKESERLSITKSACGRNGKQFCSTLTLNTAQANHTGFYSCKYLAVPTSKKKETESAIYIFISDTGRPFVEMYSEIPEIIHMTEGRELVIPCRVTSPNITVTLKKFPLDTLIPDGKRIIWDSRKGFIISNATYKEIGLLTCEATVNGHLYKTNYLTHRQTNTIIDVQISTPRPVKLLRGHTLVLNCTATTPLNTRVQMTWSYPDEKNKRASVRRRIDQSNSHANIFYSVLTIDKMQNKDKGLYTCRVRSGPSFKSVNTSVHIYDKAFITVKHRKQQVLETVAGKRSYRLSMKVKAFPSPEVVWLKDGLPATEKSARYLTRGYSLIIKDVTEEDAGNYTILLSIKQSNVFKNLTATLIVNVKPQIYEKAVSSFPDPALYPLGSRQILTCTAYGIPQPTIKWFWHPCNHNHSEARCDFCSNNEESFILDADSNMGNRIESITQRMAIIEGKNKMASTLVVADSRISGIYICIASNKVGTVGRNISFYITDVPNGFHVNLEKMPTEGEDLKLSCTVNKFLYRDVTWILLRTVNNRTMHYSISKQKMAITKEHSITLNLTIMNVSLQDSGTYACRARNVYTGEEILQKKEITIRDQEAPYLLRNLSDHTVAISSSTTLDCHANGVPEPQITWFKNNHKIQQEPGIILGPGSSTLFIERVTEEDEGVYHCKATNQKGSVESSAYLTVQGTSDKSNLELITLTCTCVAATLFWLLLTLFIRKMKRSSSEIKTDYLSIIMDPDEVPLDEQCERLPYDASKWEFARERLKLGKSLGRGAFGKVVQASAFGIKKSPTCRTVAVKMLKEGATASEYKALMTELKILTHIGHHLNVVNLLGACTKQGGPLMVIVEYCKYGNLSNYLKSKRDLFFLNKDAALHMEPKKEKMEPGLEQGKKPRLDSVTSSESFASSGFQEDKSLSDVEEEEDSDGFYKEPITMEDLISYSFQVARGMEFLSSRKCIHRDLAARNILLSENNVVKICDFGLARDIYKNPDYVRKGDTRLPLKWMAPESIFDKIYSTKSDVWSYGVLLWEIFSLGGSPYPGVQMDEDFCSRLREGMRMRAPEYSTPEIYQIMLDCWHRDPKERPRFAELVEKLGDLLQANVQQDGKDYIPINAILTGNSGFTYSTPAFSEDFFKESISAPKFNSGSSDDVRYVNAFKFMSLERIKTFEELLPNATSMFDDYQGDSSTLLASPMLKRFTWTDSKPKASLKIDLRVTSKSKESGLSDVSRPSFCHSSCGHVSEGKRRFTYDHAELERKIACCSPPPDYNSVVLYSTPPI
# Procedure, shortened: as §2
# FGFR1 = target: T10, FGFR1 (Homo sapiens, UniProt P11362); assay: Kinase inhibition assay (33P transfer), FGFR1; settings: read-out: FGFR1-1
# T10 construct: Kinases are expressed as either kinase domains or full length constructs; made in house
# T10 sequence (P11362 22-822, species assumed): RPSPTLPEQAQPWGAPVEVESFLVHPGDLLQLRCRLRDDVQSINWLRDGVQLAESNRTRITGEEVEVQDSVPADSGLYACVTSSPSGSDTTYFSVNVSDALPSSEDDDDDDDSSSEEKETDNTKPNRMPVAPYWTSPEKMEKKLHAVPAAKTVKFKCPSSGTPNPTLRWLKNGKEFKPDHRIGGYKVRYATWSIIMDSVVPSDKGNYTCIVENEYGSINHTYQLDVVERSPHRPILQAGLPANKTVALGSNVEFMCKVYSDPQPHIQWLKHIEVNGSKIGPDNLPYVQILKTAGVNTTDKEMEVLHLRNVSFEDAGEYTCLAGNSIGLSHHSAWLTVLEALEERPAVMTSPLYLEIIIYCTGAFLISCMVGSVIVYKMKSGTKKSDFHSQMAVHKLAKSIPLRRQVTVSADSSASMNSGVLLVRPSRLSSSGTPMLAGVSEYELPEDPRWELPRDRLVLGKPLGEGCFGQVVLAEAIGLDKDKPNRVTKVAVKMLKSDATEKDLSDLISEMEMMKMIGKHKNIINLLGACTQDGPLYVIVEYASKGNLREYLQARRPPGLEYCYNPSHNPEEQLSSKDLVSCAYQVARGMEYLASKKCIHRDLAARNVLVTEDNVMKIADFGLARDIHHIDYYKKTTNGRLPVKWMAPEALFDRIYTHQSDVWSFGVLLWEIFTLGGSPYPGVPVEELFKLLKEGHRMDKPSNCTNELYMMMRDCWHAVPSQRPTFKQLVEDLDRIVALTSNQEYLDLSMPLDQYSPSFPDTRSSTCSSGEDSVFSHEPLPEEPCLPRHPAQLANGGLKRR
# EPHB4 = target: T11, EPHB4 (Homo sapiens, UniProt P54760); assay: Kinase inhibition assay (33P transfer), EPHB4; settings: read-out: EPHB4-1
# T11 construct: Kinases are expressed as either kinase domains or full length constructs; made in house
# T11 sequence (P54760 16-987): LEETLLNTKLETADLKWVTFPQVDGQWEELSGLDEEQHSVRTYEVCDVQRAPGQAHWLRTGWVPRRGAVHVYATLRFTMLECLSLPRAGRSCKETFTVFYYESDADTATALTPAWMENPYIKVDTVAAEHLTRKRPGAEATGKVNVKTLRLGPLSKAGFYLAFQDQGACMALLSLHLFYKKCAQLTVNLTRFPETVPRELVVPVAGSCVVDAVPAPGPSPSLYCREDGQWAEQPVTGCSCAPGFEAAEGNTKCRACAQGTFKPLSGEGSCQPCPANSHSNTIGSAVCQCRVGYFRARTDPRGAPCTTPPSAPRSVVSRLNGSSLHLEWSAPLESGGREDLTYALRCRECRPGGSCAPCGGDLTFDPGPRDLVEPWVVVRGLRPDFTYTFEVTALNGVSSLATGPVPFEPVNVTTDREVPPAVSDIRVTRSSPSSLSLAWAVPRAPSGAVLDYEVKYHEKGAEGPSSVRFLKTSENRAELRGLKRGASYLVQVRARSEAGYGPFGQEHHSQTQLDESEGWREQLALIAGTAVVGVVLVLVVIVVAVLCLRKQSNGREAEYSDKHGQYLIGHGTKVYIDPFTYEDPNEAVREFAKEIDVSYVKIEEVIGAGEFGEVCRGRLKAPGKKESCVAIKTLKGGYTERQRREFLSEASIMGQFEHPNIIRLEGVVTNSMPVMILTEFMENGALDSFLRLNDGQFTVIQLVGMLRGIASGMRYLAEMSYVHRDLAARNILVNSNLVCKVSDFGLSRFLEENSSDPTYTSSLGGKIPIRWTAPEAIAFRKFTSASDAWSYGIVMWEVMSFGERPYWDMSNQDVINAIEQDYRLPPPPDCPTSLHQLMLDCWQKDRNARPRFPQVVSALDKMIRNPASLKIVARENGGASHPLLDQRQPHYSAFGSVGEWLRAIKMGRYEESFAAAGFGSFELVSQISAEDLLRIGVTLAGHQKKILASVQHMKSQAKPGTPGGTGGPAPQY
pIC50 (AKT),pIC50 (Src),pIC50 (EGFR),pIC50 (Lck),pIC50 (Hck-1),pIC50 (c-Met),pIC50 (PDGFRB),pIC50 (Tek),pIC50 (Flt-1),pIC50 (FGFR1),pIC50 (EPHB4),Compound
< 4.97,> 6.02,5.24 to 6.02,> 6.02,5.08 to 5.24,> 6.02,5.08 to 5.24,5.08 to 5.24,> 6.02,5.24 to 6.02,> 6.02,COc1cc(Nc2ncnc(Nc3cc(-c4ccccc4)n[nH]3)n2)cc(OC)c1OC [Compound 102]
< 4.95,< 4.95,> 6.00,> 6.00,< 4.95,< 4.95,< 4.95,< 4.95,< 4.95,5.06 to 5.23,< 4.95,COc1cc(Nc2ncnc(Nc3cccc4ccccc34)n2)cc(OC)c1OC [Compound 98]
< 5.01,5.28 to 6.06,5.28 to 6.06,5.28 to 6.06,< 5.01,5.01 to 5.12,> 6.06,5.01 to 5.12,5.28 to 6.06,5.28 to 6.06,< 5.01,COc1cc(Nc2ncnc(Nc3ccc(OCc4ccccc4)cc3)n2)cc(OC)c1OC [Compound 926]
4.91 to 5.02,4.91 to 5.02,5.19 to 5.96,< 4.91,< 4.91,5.19 to 5.96,5.19 to 5.96,5.02 to 5.19,5.02 to 5.19,5.02 to 5.19,5.02 to 5.19,COc1cc(Nc2ncnc(Nc3ccc(N)cc3)n2)cc(OC)c1OC [Compound 92]
< 4.91,> 5.96,> 5.96,5.18 to 5.96,< 4.91,5.02 to 5.18,4.91 to 5.02,< 4.91,< 4.91,< 4.91,5.18 to 5.96,COc1cc(Nc2ncnc(Nc3cccc(C)c3)n2)cc(OC)c1OC [Compound 64]
4.89 to 5.00,4.89 to 5.00,< 4.89,5.00 to 5.16,< 4.89,5.16 to 5.94,5.16 to 5.94,5.16 to 5.94,> 5.94,> 5.94,< 4.89,NC(=O)c1cccc(Nc2ncnc(-n3c(N)nc4ccccc43)n2)c1 [Compound 395]
< 4.94,> 5.99,5.21 to 5.99,5.21 to 5.99,< 4.94,< 4.94,> 5.99,< 4.94,> 5.99,5.21 to 5.99,5.21 to 5.99,COc1cc(Nc2ncnc(Nc3ccc4cn[nH]c4c3)n2)cc(OC)c1OC [Compound 70]
< 4.93,5.04 to 5.20,5.20 to 5.98,5.20 to 5.98,< 4.93,< 4.93,> 5.98,< 4.93,> 5.98,< 4.93,< 4.93,COc1ccc(Nc2ncnc(Nc3cc(OC)c(OC)c(OC)c3)n2)cc1 [Compound 89]
< 4.95,5.23 to 6.00,5.23 to 6.00,5.23 to 6.00,< 4.95,< 4.95,> 6.00,< 4.95,5.23 to 6.00,5.23 to 6.00,5.23 to 6.00,COc1cc(Nc2ncnc(Nc3ccc(O)cc3Cl)n2)cc(OC)c1OC [Compound 77]
< 4.98,< 4.98,< 4.98,4.98 to 5.09,< 4.98,< 4.98,> 6.04,< 4.98,> 6.04,5.26 to 6.04,< 4.98,COc1cc(Nc2ncnc(-n3cc(CC(N)=O)c4ccccc43)n2)cc(OC)c1OC [Compound 353]
< 4.94,> 5.99,> 5.99,> 5.99,< 4.94,5.05 to 5.21,5.21 to 5.99,< 4.94,5.21 to 5.99,5.05 to 5.21,> 5.99,COc1cc(Nc2ncnc(Nc3ccc4[nH]ncc4c3)n2)cc(OC)c1OC [Compound 79]
< 4.93,5.20 to 5.98,5.20 to 5.98,5.20 to 5.98,5.20 to 5.98,< 4.93,> 5.98,< 4.93,5.20 to 5.98,5.20 to 5.98,5.20 to 5.98,COc1ccccc1Nc1ncnc(Nc2cc(OC)c(OC)c(OC)c2)n1 [Compound 90]
< 5.03,< 5.03,5.03 to 5.14,> 6.08,< 5.03,5.03 to 5.14,> 6.08,< 5.03,< 5.03,5.30 to 6.08,5.30 to 6.08,COc1cc(Nc2ncnc(-n3c(Nc4ccccc4C)nc4ccccc43)n2)cc(OC)c1OC [Compound 384]
< 5.05,< 5.05,5.05 to 5.16,> 6.10,< 5.05,5.16 to 5.33,> 6.10,5.33 to 6.10,> 6.10,> 6.10,5.05 to 5.16,COc1cc(Nc2ncnc(-n3c(Nc4ccc5[nH]ccc5c4)nc4ccccc43)n2)cc(OC)c1OC [Compound 376]
< 5.00,5.28 to 6.05,5.11 to 5.28,5.28 to 6.05,< 5.00,> 6.05,< 5.00,5.00 to 5.11,5.28 to 6.05,5.11 to 5.28,5.28 to 6.05,COc1cc(Nc2ncnc(Nc3cc(-c4ccc(Cl)cc4)n[nH]3)n2)cc(OC)c1OC [Compound 367]
< 4.95,5.06 to 5.23,5.23 to 6.00,5.23 to 6.00,4.95 to 5.06,< 4.95,5.23 to 6.00,< 4.95,4.95 to 5.06,< 4.95,< 4.95,COc1cc(Nc2ncnc(Nc3ccc4ccccc4c3)n2)cc(OC)c1OC [Compound 96]
< 4.94,> 6.00,< 4.94,5.22 to 6.00,< 4.94,5.22 to 6.00,< 4.94,5.05 to 5.22,< 4.94,< 4.94,4.94 to 5.05,COc1cc(Nc2ncnc(Nc3ccc(C(C)C)cc3)n2)cc(OC)c1OC [Compound 66]
< 4.92,5.19 to 5.97,> 5.97,4.92 to 5.03,< 4.92,< 4.92,> 5.97,< 4.92,5.19 to 5.97,< 4.92,5.03 to 5.19,COc1cc(Nc2ncnc(Nc3ccccc3F)n2)cc(OC)c1OC [Compound 65]
< 4.94,5.21 to 5.99,< 4.94,> 5.99,< 4.94,5.21 to 5.99,> 5.99,5.21 to 5.99,> 5.99,> 5.99,5.21 to 5.99,COc1cc(Nc2ncnc(-n3c(N)nc4ccccc43)n2)cc(OC)c1OC [Compound 289]
